PMC8151276, “An Integrated Approach toward NanoBRET Tracers for Analysis of GPCR Ligand Engagement” (Molecules, 2021)

Legend:
Format in all cases: binding
AVPR2 = target: T1, AVPR2 (Homo sapiens, UniProt P30518); experiment: NanoBRET screen HiBiT-AVPR2 in HEK293
T1 construct: purchased Promega (in-house HiBiT-GPCR construct library, NanoBRET)
How it was run: (§1)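 Each tracer was tested at 1 μM and 0.1 μM on HEK293 cells expressing HiBiT-GPCR, in parallel with wells containing 20 μM excess parental compound. After 1.5 h, LgBiT complementation enabled BRET measurement (450 nm/600 nm).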

P2RY1 = target: T2, P2RY1 (Homo sapiens, UniProt P47900); experiment: NanoBRET screen HiBiT-P2RY1 in HEK293
T2 construct: purchased Promega (in-house HiBiT-GPCR construct library, NanoBRET)
T2 sequence (P47900 whole entry): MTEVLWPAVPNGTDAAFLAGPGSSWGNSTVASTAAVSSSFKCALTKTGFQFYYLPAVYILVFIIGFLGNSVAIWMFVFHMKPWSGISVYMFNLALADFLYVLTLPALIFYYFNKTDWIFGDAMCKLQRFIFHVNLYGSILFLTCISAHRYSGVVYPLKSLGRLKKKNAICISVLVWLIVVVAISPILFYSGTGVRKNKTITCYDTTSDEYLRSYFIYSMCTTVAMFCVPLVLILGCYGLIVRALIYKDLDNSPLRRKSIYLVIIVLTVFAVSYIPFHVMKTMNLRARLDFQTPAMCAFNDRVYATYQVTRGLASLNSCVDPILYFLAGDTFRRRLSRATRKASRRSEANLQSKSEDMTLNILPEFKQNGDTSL
How it was run: as §1

P2RY2 = target: T3, P2RY2 (Homo sapiens, UniProt P41231); experiment: NanoBRET screen HiBiT-P2RY2 in HEK293
T3 construct: purchased Promega (in-house HiBiT-GPCR construct library, NanoBRET)
T3 sequence (P41231 whole entry): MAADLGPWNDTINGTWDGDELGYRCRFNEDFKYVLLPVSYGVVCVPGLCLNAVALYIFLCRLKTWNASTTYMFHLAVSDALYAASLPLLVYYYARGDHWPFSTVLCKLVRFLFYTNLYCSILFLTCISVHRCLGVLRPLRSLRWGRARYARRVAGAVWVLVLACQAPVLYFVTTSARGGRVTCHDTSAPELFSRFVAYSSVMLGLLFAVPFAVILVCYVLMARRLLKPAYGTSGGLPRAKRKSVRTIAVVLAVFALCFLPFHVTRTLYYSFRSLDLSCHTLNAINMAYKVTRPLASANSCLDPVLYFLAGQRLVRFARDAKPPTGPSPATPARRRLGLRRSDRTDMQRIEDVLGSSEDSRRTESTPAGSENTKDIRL
How it was run: as §1

P2RY10 = target: T4, P2RY10 (Homo sapiens, UniProt O00398); experiment: NanoBRET screen HiBiT-P2RY10 in HEK293
T4 construct: purchased Promega (in-house HiBiT-GPCR construct library, NanoBRET)
T4 sequence (O00398 whole entry, one chain of several): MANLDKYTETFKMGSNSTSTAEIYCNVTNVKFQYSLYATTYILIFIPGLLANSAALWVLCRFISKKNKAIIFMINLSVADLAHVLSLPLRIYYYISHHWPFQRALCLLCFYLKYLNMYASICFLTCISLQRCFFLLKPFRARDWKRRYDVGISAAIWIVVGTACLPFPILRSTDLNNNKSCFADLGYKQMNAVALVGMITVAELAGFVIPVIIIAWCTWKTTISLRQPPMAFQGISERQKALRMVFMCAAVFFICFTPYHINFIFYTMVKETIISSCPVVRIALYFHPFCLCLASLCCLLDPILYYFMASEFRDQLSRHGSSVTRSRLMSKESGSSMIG
How it was run: as §1

PDGFRB = target: T5, PDGFRB (Homo sapiens, UniProt P09619); experiment: NanoBRET screen HiBiT-PDGFRB in HEK293
T5 construct: purchased Promega (in-house HiBiT-GPCR construct library, NanoBRET)
T5 sequence (P09619 33-1106): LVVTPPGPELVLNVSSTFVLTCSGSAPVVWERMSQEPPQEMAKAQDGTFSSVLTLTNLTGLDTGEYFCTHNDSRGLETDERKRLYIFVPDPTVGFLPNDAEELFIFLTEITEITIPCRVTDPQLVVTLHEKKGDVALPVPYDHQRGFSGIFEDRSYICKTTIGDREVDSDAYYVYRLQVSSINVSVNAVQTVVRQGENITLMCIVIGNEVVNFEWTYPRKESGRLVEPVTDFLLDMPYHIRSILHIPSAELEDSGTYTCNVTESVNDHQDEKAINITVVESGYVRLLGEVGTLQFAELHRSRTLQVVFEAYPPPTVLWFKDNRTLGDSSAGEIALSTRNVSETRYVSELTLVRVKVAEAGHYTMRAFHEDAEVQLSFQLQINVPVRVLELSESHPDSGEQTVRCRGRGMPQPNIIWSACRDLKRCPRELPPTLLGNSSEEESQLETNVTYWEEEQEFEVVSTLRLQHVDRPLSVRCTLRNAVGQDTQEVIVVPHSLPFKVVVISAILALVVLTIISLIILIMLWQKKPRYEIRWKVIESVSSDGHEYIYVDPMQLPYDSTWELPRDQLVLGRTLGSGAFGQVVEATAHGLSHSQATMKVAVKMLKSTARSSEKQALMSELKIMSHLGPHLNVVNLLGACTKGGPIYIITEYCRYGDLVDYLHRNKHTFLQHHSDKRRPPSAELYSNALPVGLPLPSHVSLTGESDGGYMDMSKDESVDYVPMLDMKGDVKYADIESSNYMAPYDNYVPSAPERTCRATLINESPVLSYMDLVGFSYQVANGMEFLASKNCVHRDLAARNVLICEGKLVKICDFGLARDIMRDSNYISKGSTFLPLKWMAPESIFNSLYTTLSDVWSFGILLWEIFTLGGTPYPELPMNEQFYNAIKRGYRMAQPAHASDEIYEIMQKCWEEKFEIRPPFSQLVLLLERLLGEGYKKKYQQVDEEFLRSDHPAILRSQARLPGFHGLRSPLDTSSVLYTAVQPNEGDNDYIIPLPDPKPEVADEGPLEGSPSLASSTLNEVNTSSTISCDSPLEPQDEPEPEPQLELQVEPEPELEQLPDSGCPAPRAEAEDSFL
How it was run: as §1

F2RL3 = target: T6, F2RL3 (Homo sapiens, UniProt Q96RI0); experiment: NanoBRET screen HiBiT-F2RL3 in HEK293
T6 construct: purchased Promega (in-house HiBiT-GPCR construct library, NanoBRET)
T6 sequence (Q96RI0 18-385): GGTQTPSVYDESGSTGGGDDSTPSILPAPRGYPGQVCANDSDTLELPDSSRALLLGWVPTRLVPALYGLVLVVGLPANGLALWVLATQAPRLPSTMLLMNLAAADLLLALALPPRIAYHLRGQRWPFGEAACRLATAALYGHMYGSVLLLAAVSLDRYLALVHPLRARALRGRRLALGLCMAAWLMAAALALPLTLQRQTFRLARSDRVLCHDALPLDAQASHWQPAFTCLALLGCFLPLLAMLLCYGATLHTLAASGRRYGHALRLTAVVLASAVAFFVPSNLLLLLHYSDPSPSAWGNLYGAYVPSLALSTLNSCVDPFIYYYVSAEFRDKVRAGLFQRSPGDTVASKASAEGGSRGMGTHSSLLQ
How it was run: as §1

RXFP4 = target: T7, RXFP4 (Homo sapiens, UniProt Q8TDU9); experiment: NanoBRET screen HiBiT-RXFP4 in HEK293
T7 construct: purchased Promega (in-house HiBiT-GPCR construct library, NanoBRET)
T7 sequence (Q8TDU9 whole entry): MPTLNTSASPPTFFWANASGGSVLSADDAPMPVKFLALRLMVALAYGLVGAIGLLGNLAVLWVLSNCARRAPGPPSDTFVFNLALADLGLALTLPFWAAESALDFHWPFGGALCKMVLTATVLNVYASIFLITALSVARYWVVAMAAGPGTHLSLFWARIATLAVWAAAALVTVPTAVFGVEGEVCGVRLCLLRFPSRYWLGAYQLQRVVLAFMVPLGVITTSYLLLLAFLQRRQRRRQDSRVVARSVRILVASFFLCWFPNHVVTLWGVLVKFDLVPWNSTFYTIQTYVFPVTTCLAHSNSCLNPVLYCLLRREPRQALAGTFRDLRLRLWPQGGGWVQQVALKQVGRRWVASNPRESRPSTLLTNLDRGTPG
How it was run: as §1

GRM5 = target: T8, GRM5 (Homo sapiens, UniProt P41594); experiment: NanoBRET screen HiBiT-GRM5 in HEK293
T8 construct: purchased Promega (in-house HiBiT-GPCR construct library, NanoBRET)
T8 sequence (P41594 21-1212): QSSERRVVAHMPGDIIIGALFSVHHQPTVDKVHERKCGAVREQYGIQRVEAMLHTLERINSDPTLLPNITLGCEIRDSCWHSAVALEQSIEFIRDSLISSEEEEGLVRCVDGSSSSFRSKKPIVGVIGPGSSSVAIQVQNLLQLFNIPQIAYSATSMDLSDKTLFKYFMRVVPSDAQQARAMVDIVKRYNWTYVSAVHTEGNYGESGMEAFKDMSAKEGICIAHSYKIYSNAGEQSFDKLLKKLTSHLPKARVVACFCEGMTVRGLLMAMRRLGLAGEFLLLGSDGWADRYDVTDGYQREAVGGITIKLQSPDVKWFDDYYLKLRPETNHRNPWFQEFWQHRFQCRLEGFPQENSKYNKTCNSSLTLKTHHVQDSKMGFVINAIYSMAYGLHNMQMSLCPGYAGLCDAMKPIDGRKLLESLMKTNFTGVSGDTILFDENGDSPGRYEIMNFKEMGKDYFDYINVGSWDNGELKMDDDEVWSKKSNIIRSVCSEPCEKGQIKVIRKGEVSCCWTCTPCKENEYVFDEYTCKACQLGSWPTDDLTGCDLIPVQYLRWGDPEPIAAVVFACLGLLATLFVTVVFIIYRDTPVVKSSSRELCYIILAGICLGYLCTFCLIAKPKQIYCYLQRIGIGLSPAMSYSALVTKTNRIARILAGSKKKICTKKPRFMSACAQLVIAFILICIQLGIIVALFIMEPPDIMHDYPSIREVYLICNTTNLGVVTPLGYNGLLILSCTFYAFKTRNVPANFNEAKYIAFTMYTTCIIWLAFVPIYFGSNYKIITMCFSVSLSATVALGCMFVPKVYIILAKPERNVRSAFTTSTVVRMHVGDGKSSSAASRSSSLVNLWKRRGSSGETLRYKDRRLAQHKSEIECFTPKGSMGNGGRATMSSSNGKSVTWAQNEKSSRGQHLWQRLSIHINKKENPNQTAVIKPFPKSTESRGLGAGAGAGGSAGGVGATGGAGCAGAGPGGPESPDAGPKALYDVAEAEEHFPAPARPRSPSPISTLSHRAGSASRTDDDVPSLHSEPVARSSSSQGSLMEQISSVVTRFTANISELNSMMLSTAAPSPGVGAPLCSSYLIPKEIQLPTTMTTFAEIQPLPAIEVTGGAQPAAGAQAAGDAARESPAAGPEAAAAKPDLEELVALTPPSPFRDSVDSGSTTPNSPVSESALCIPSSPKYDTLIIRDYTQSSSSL
How it was run: as §1

CYSLTR2 = target: T9, CYSLTR2 (Homo sapiens, UniProt Q9NS75); experiment: NanoBRET screen HiBiT-CYSLTR2 in HEK293
T9 construct: purchased Promega (in-house HiBiT-GPCR construct library, NanoBRET)
T9 sequence (Q9NS75 1-346): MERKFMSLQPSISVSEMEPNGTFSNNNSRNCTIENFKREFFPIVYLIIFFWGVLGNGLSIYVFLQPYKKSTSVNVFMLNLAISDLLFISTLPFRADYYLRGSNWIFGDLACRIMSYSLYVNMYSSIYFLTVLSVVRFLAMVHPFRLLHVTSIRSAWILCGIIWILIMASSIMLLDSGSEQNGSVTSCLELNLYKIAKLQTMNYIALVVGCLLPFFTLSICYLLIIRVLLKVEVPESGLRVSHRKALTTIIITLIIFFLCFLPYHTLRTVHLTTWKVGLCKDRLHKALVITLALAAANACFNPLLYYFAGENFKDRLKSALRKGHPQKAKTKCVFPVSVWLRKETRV
How it was run: as §1

T1 sequence (P30518 whole entry): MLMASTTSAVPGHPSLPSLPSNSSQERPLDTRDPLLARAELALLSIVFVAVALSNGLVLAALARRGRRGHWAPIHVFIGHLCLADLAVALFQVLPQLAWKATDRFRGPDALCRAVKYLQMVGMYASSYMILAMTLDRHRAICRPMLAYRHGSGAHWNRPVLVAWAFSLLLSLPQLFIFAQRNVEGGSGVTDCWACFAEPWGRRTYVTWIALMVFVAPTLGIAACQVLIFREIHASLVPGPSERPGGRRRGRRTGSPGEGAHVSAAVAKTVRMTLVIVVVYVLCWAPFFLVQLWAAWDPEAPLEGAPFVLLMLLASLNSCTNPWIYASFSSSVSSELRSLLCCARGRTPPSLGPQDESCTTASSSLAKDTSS

## COc1ccccc1N1CCN(CCCCN2C(=O)c3ccc(CNC(=O)CCOCCNC(=O)c4ccc(CNC(=O)CCc5ccc6n5[B-](F)(F)[N+]5=C(c7ccc[nH]7)C=CC5=C6)cc4)cc3C2=O)CC1 [NAN-190-3-NB590]
AVPR2; AVPR2, tracer 0.1μM
  NanoBRET Fold Response: 1.08
AVPR2; AVPR2, tracer 1μM
  NanoBRET Fold Response: 1.11
P2RY1; P2RY1, tracer 0.1μM
  NanoBRET Fold Response: 0.97
P2RY1; P2RY1, tracer 1μM
  NanoBRET Fold Response: 1.00
P2RY2; P2RY2, tracer 0.1μM
  NanoBRET Fold Response: 1.00
P2RY2; P2RY2, tracer 1μM
  NanoBRET Fold Response: 1.01
P2RY10; P2RY10, tracer 0.1μM
  NanoBRET Fold Response: 1.23
P2RY10; P2RY10, tracer 1μM
  NanoBRET Fold Response: 1.08
PDGFRB; PDGFRB, tracer 0.1μM
  NanoBRET Fold Response: 0.93
PDGFRB; PDGFRB, tracer 1μM
  NanoBRET Fold Response: 1.07
F2RL3; F2RL3, tracer 0.1μM
  NanoBRET Fold Response: 1.15
F2RL3; F2RL3, tracer 1μM
  NanoBRET Fold Response: 0.99
RXFP4; RXFP4, tracer 0.1μM
  NanoBRET Fold Response: 0.93
RXFP4; RXFP4, tracer 1μM
  NanoBRET Fold Response: 0.90
GRM5; GRM5, tracer 0.1μM
  NanoBRET Fold Response: 1.05
GRM5; GRM5, tracer 1μM
  NanoBRET Fold Response: 1.15
CYSLTR2; CYSLTR2, tracer 0.1μM
  NanoBRET Fold Response: 1.11
CYSLTR2; CYSLTR2, tracer 1μM
  NanoBRET Fold Response: 1.31

## Cc1cc2c(s1)Nc1ccccc1N=C2N1CCN(CCCNC(=O)CCOCCOCCOCCOCCNC(=O)CCc2ccc3n2[B-](F)(F)[N+]2=C(c4ccc[nH]4)C=CC2=C3)CC1 [Olanzapine-a-2-NB590]
AVPR2; AVPR2, tracer 0.1μM
  NanoBRET Fold Response: 0.98
AVPR2; AVPR2, tracer 1μM
  NanoBRET Fold Response: 0.92
P2RY1; P2RY1, tracer 0.1μM
  NanoBRET Fold Response: 0.97
P2RY1; P2RY1, tracer 1μM
  NanoBRET Fold Response: 0.95
P2RY2; P2RY2, tracer 0.1μM
  NanoBRET Fold Response: 0.95
P2RY2; P2RY2, tracer 1μM
  NanoBRET Fold Response: 1.13
P2RY10; P2RY10, tracer 0.1μM
  NanoBRET Fold Response: 0.99
P2RY10; P2RY10, tracer 1μM
  NanoBRET Fold Response: 1.15
PDGFRB; PDGFRB, tracer 0.1μM
  NanoBRET Fold Response: 0.98
PDGFRB; PDGFRB, tracer 1μM
  NanoBRET Fold Response: 1.05
F2RL3; F2RL3, tracer 0.1μM
  NanoBRET Fold Response: 1.04
F2RL3; F2RL3, tracer 1μM
  NanoBRET Fold Response: 0.98
RXFP4; RXFP4, tracer 0.1μM
  NanoBRET Fold Response: 0.95
RXFP4; RXFP4, tracer 1μM
  NanoBRET Fold Response: 0.91
GRM5; GRM5, tracer 0.1μM
  NanoBRET Fold Response: 0.95
GRM5; GRM5, tracer 1μM
  NanoBRET Fold Response: 0.97
CYSLTR2; CYSLTR2, tracer 0.1μM
  NanoBRET Fold Response: 0.95
CYSLTR2; CYSLTR2, tracer 1μM
  NanoBRET Fold Response: 0.99

## CCCn1c(=O)c2[nH]c(-c3ccc(OCC(=O)NCCNC(=O)CCOCCNC(=O)c4ccc(CNC(=O)CCc5ccc6n5[B-](F)(F)[N+]5=C(c7ccc[nH]7)C=CC5=C6)cc4)cc3)nc2n(CCC)c1=O [XAC-3-NB590]
AVPR2; AVPR2, tracer 0.1μM
  NanoBRET Fold Response: 0.73
AVPR2; AVPR2, tracer 1μM
  NanoBRET Fold Response: 0.91
P2RY1; P2RY1, tracer 0.1μM
  NanoBRET Fold Response: 1.05
P2RY1; P2RY1, tracer 1μM
  NanoBRET Fold Response: 0.96
P2RY2; P2RY2, tracer 0.1μM
  NanoBRET Fold Response: 0.96
P2RY2; P2RY2, tracer 1μM
  NanoBRET Fold Response: 0.95
P2RY10; P2RY10, tracer 0.1μM
  NanoBRET Fold Response: 0.88
P2RY10; P2RY10, tracer 1μM
  NanoBRET Fold Response: 0.84
PDGFRB; PDGFRB, tracer 0.1μM
  NanoBRET Fold Response: 0.76
PDGFRB; PDGFRB, tracer 1μM
  NanoBRET Fold Response: 0.79
F2RL3; F2RL3, tracer 0.1μM
  NanoBRET Fold Response: 0.99
F2RL3; F2RL3, tracer 1μM
  NanoBRET Fold Response: 1.05
RXFP4; RXFP4, tracer 0.1μM
  NanoBRET Fold Response: 1.00
RXFP4; RXFP4, tracer 1μM
  NanoBRET Fold Response: 0.96
GRM5; GRM5, tracer 0.1μM
  NanoBRET Fold Response: 1.01
GRM5; GRM5, tracer 1μM
  NanoBRET Fold Response: 0.98
CYSLTR2; CYSLTR2, tracer 0.1μM
  NanoBRET Fold Response: 1.08
CYSLTR2; CYSLTR2, tracer 1μM
  NanoBRET Fold Response: 1.01

## COc1ccc2c(n1)c(CCNC(C)=O)cn2CCNC(=O)CCc1ccc2n1[B-](F)(F)[N+]1=C(c3ccc[nH]3)C=CC1=C2 [Azamelatonin-1-NB590]
AVPR2; 0.1μM tracer
  NanoBRET Fold Response: 0.91
AVPR2; 1μM tracer
  NanoBRET Fold Response: 1.01
P2RY1; 0.1μM tracer
  NanoBRET Fold Response: 0.99
P2RY1; 1μM tracer
  NanoBRET Fold Response: 0.99
P2RY2; 0.1μM tracer
  NanoBRET Fold Response: 0.93
P2RY2; 1μM tracer
  NanoBRET Fold Response: 0.93
P2RY10; 0.1μM tracer
  NanoBRET Fold Response: 0.88
P2RY10; 1μM tracer
  NanoBRET Fold Response: 0.88
PDGFRB; 0.1μM tracer
  NanoBRET Fold Response: 0.56
PDGFRB; 1μM tracer
  NanoBRET Fold Response: 0.56
F2RL3; 0.1μM tracer
  NanoBRET Fold Response: 0.98
F2RL3; 1μM tracer
  NanoBRET Fold Response: 0.86
RXFP4; 0.1μM tracer
  NanoBRET Fold Response: 0.73
RXFP4; 1μM tracer
  NanoBRET Fold Response: 1.04
GRM5; 0.1μM tracer
  NanoBRET Fold Response: 0.84
GRM5; 1μM tracer
  NanoBRET Fold Response: 0.95
CYSLTR2; 0.1μM tracer
  NanoBRET Fold Response: 1.37
CYSLTR2; 1μM tracer
  NanoBRET Fold Response: 0.46
